From patent US20240109972A1, “ANTIBODY AND TAXANE COMBINATION THERAPY” (Genmab A/S, priority 2020, published 2024)

Columns and labels:
[1] = system: MC38 mouse colon cancer cells; format: in vivo; details: mbsIgG2a-PD-L1×4-1BB 0.5 mg/kg 2QW×3, docetaxel 10 mg/kg QW×3; FIG. 7A
Method: MC38 mouse colon cancer cells were cultured in Dulbecco's Modified Eagle Medium supplemented with 10% heat-inactivated fetal bovine serum at 37° C., 5% CO2. MC38 cells were harvested from a cell culture growing in log-phase and quantified.
MC38 cells (1×10^6 tumor cells in 100 μL PBS) were injected subcutaneously in the right lower flank of female C57BL/6 mice (obtained from Vital River Laboratories Research Models and Services; age 6-8 weeks at start of experiment).
Tumor growth was evaluated three times per week using a caliper. Tumor volumes (mm^3) were calculated from caliper measurements as ([length]×[width]^2)/2, where the length is the longest tumor dimension, and the width is the longest tumor dimension perpendicular to the length.
Mice were randomized into groups (n=10/group) with an average tumor volume of 64 mm^3 prior to treatment. […]
The mice were monitored daily for clinical signs of illness. […]

[2] = GEN1046 in combination with docetaxel in metastatic NSCLC subjects, adverse effects; format: in vivo, human
Method: Docetaxel was administered at a dose of 55 mg/m^2 or 75 mg/m^2 depending on the number of prior Dose Limiting Toxicities observed. The maximum tested dose of docetaxel was be 75 mg/m^2.
Subjects with a histological or cytological diagnosis of non-squamous NSCLC must not have an EGFR-sensitizing mutation and/or ALK translocation/ROS1 rearrangement. EGFR sensitizing mutations are those mutations that are amenable to treatment with an approved TKI. Documentation of EGFR and ALK status should be available per local assessment.

CC(=O)O[C@@]12CO[C@@H]1C[C@H](O)[C@@]1(C)C(=O)[C@H](O)C3=C(C)[C@@H](OC(=O)[C@H](O)[C@@H](NC(=O)OC(C)(C)C)c4ccccc4)C[C@@](O)([C@@H](OC(=O)c4ccccc4)[C@H]21)C3(C)C [Docetaxel, reference compound]
2: Anemia Grade 2, Docetaxel-related ([2]; 55 mg/m^2 Docetaxel + GEN1046) | Anemia Grade 3, Docetaxel-related ([2]; 55 mg/m^2 Docetaxel + GEN1046) | Fatigue Grade 2, Docetaxel-related ([2]; 55 mg/m^2 Docetaxel + GEN1046) | Vomiting Grade 2, Docetaxel-related ([2]; 55 mg/m^2 Docetaxel + GEN1046) | Fatigue Grade 2, Docetaxel-related ([2]; 75 mg/m^2 Docetaxel + GEN1046) | Nausea Grade 2, Docetaxel-related ([2]; 75 mg/m^2 Docetaxel + GEN1046)
No reported drug-related hepatoxicities: Hepatotoxicity ([2]; GEN1046 in combination with Docetaxel)
0: Anemia Grade 4, Docetaxel-related ([2]; 55 mg/m^2 Docetaxel + GEN1046) | Anemia Grade 5, Docetaxel-related ([2]; 55 mg/m^2 Docetaxel + GEN1046) | Blood alkaline phosphatase increase Grade 1, Docetaxel-related ([2]; 55 mg/m^2 Docetaxel + GEN1046) | Blood alkaline phosphatase increase Grade 4, Docetaxel-related ([2]; 55 mg/m^2 Docetaxel + GEN1046) | Blood alkaline phosphatase increase Grade 5, Docetaxel-related ([2]; 55 mg/m^2 Docetaxel + GEN1046) | Dysgeusia Grade 1, Docetaxel-related ([2]; 55 mg/m^2 Docetaxel + GEN1046) | Dysgeusia Grade 3, Docetaxel-related ([2]; 55 mg/m^2 Docetaxel + GEN1046) | Dysgeusia Grade 4, Docetaxel-related ([2]; 55 mg/m^2 Docetaxel + GEN1046) | Dysgeusia Grade 5, Docetaxel-related ([2]; 55 mg/m^2 Docetaxel + GEN1046) | Fatigue Grade 1, Docetaxel-related ([2]; 55 mg/m^2 Docetaxel + GEN1046) | Fatigue Grade 4, Docetaxel-related ([2]; 55 mg/m^2 Docetaxel + GEN1046) | Fatigue Grade 5, Docetaxel-related ([2]; 55 mg/m^2 Docetaxel + GEN1046) | Febrile neutropenia Grade 1, Docetaxel-related ([2]; 55 mg/m^2 Docetaxel + GEN1046) | Febrile neutropenia Grade 2, Docetaxel-related ([2]; 55 mg/m^2 Docetaxel + GEN1046) | Febrile neutropenia Grade 4, Docetaxel-related ([2]; 55 mg/m^2 Docetaxel + GEN1046) | Febrile neutropenia Grade 5, Docetaxel-related ([2]; 55 mg/m^2 Docetaxel + GEN1046) | Hypokalemia Grade 1, Docetaxel-related ([2]; 55 mg/m^2 Docetaxel + GEN1046) | Hypokalemia Grade 3, Docetaxel-related ([2]; 55 mg/m^2 Docetaxel + GEN1046) | Hypokalemia Grade 4, Docetaxel-related ([2]; 55 mg/m^2 Docetaxel + GEN1046) | Hypokalemia Grade 5, Docetaxel-related ([2]; 55 mg/m^2 Docetaxel + GEN1046) | Hypomagnesaemia Grade 2, Docetaxel-related ([2]; 55 mg/m^2 Docetaxel + GEN1046) | Hypomagnesaemia Grade 3, Docetaxel-related ([2]; 55 mg/m^2 Docetaxel + GEN1046) | Hypomagnesaemia Grade 4, Docetaxel-related ([2]; 55 mg/m^2 Docetaxel + GEN1046) | Hypomagnesaemia Grade 5, Docetaxel-related ([2]; 55 mg/m^2 Docetaxel + GEN1046) | Hyponatremia Grade 2, Docetaxel-related ([2]; 55 mg/m^2 Docetaxel + GEN1046) | Hyponatremia Grade 3, Docetaxel-related ([2]; 55 mg/m^2 Docetaxel + GEN1046) | Hyponatremia Grade 4, Docetaxel-related ([2]; 55 mg/m^2 Docetaxel + GEN1046) | Hyponatremia Grade 5, Docetaxel-related ([2]; 55 mg/m^2 Docetaxel + GEN1046) | Infusion site extravasation Grade 2, Docetaxel-related ([2]; 55 mg/m^2 Docetaxel + GEN1046) | Infusion site extravasation Grade 3, Docetaxel-related ([2]; 55 mg/m^2 Docetaxel + GEN1046) | Infusion site extravasation Grade 4, Docetaxel-related ([2]; 55 mg/m^2 Docetaxel + GEN1046) | Infusion site extravasation Grade 5, Docetaxel-related ([2]; 55 mg/m^2 Docetaxel + GEN1046) | Nausea Grade 2, Docetaxel-related ([2]; 55 mg/m^2 Docetaxel + GEN1046) | Nausea Grade 3, Docetaxel-related ([2]; 55 mg/m^2 Docetaxel + GEN1046) | Nausea Grade 4, Docetaxel-related ([2]; 55 mg/m^2 Docetaxel + GEN1046) | Nausea Grade 5, Docetaxel-related ([2]; 55 mg/m^2 Docetaxel + GEN1046) | Neutrophil count decreased Grade 1, Docetaxel-related ([2]; 55 mg/m^2 Docetaxel + GEN1046) | Neutrophil count decreased Grade 2, Docetaxel-related ([2]; 55 mg/m^2 Docetaxel + GEN1046) | Neutrophil count decreased Grade 3, Docetaxel-related ([2]; 55 mg/m^2 Docetaxel + GEN1046) | Neutrophil count decreased Grade 5, Docetaxel-related ([2]; 55 mg/m^2 Docetaxel + GEN1046) | Pyrexia Grade 3, Docetaxel-related ([2]; 55 mg/m^2 Docetaxel + GEN1046) | Pyrexia Grade 4, Docetaxel-related ([2]; 55 mg/m^2 Docetaxel + GEN1046) | Pyrexia Grade 5, Docetaxel-related ([2]; 55 mg/m^2 Docetaxel + GEN1046) | Vomiting Grade 1, Docetaxel-related ([2]; 55 mg/m^2 Docetaxel + GEN1046) | Vomiting Grade 3, Docetaxel-related ([2]; 55 mg/m^2 Docetaxel + GEN1046) | Vomiting Grade 4, Docetaxel-related ([2]; 55 mg/m^2 Docetaxel + GEN1046) | Vomiting Grade 5, Docetaxel-related ([2]; 55 mg/m^2 Docetaxel + GEN1046) | White blood cell count decreased Grade 1, Docetaxel-related ([2]; 55 mg/m^2 Docetaxel + GEN1046) | White blood cell count decreased Grade 2, Docetaxel-related ([2]; 55 mg/m^2 Docetaxel + GEN1046) | White blood cell count decreased Grade 3, Docetaxel-related ([2]; 55 mg/m^2 Docetaxel + GEN1046) | White blood cell count decreased Grade 5, Docetaxel-related ([2]; 55 mg/m^2 Docetaxel + GEN1046) | Anaemia Grade 1, Docetaxel-related ([2]; 75 mg/m^2 Docetaxel + GEN1046) | Anaemia Grade 2, Docetaxel-related ([2]; 75 mg/m^2 Docetaxel + GEN1046) | Anaemia Grade 4, Docetaxel-related ([2]; 75 mg/m^2 Docetaxel + GEN1046) | Anaemia Grade 5, Docetaxel-related ([2]; 75 mg/m^2 Docetaxel + GEN1046) | Diarrhea Grade 2, Docetaxel-related ([2]; 75 mg/m^2 Docetaxel + GEN1046) | Diarrhea Grade 3, Docetaxel-related ([2]; 75 mg/m^2 Docetaxel + GEN1046) | Diarrhea Grade 4, Docetaxel-related ([2]; 75 mg/m^2 Docetaxel + GEN1046) | Diarrhea Grade 5, Docetaxel-related ([2]; 75 mg/m^2 Docetaxel + GEN1046) | Dyspnea Grade 1, Docetaxel-related ([2]; 75 mg/m^2 Docetaxel + GEN1046) | Dyspnea Grade 2, Docetaxel-related ([2]; 75 mg/m^2 Docetaxel + GEN1046) | Dyspnea Grade 3, Docetaxel-related ([2]; 75 mg/m^2 Docetaxel + GEN1046) | Dyspnea Grade 5, Docetaxel-related ([2]; 75 mg/m^2 Docetaxel + GEN1046) | Fatigue Grade 3, Docetaxel-related ([2]; 75 mg/m^2 Docetaxel + GEN1046) | Fatigue Grade 4, Docetaxel-related ([2]; 75 mg/m^2 Docetaxel + GEN1046) | Fatigue Grade 5, Docetaxel-related ([2]; 75 mg/m^2 Docetaxel + GEN1046) | Gastrooesophageal reflux disease Grade 1, Docetaxel-related ([2]; 75 mg/m^2 Docetaxel + GEN1046) | Gastrooesophageal reflux disease Grade 3, Docetaxel-related ([2]; 75 mg/m^2 Docetaxel + GEN1046) | Gastrooesophageal reflux disease Grade 4, Docetaxel-related ([2]; 75 mg/m^2 Docetaxel + GEN1046) | Gastrooesophageal reflux disease Grade 5, Docetaxel-related ([2]; 75 mg/m^2 Docetaxel + GEN1046) | Hiccups Grade 1, Docetaxel-related ([2]; 75 mg/m^2 Docetaxel + GEN1046) | Hiccups Grade 3, Docetaxel-related ([2]; 75 mg/m^2 Docetaxel + GEN1046) | Hiccups Grade 4, Docetaxel-related ([2]; 75 mg/m^2 Docetaxel + GEN1046) | Hiccups Grade 5, Docetaxel-related ([2]; 75 mg/m^2 Docetaxel + GEN1046) | Lacrimation increased Grade 2, Docetaxel-related ([2]; 75 mg/m^2 Docetaxel + GEN1046) | Lacrimation increased Grade 3, Docetaxel-related ([2]; 75 mg/m^2 Docetaxel + GEN1046) | Lacrimation increased Grade 4, Docetaxel-related ([2]; 75 mg/m^2 Docetaxel + GEN1046) | Lacrimation increased Grade 5, Docetaxel-related ([2]; 75 mg/m^2 Docetaxel + GEN1046) | Nausea Grade 3, Docetaxel-related ([2]; 75 mg/m^2 Docetaxel + GEN1046) | Nausea Grade 4, Docetaxel-related ([2]; 75 mg/m^2 Docetaxel + GEN1046) | Nausea Grade 5, Docetaxel-related ([2]; 75 mg/m^2 Docetaxel + GEN1046) | Neutrophil count decreased Grade 1, Docetaxel-related ([2]; 75 mg/m^2 Docetaxel + GEN1046) | Neutrophil count decreased Grade 2, Docetaxel-related ([2]; 75 mg/m^2 Docetaxel + GEN1046) | Neutrophil count decreased Grade 5, Docetaxel-related ([2]; 75 mg/m^2 Docetaxel + GEN1046) | Not coded: periphery sensory neuropathy Grade 2, Docetaxel-related ([2]; 75 mg/m^2 Docetaxel + GEN1046) | Not coded: periphery sensory neuropathy Grade 3, Docetaxel-related ([2]; 75 mg/m^2 Docetaxel + GEN1046) | Not coded: periphery sensory neuropathy Grade 4, Docetaxel-related ([2]; 75 mg/m^2 Docetaxel + GEN1046) | Not coded: periphery sensory neuropathy Grade 5, Docetaxel-related ([2]; 75 mg/m^2 Docetaxel + GEN1046) | Vomiting Grade 2, Docetaxel-related ([2]; 75 mg/m^2 Docetaxel + GEN1046) | Vomiting Grade 3, Docetaxel-related ([2]; 75 mg/m^2 Docetaxel + GEN1046) | Vomiting Grade 4, Docetaxel-related ([2]; 75 mg/m^2 Docetaxel + GEN1046) | Vomiting Grade 5, Docetaxel-related ([2]; 75 mg/m^2 Docetaxel + GEN1046)
comparable to the PBS-treated group: Tumor outgrowth [1]
1: Anemia Grade 1, Docetaxel-related ([2]; 55 mg/m^2 Docetaxel + GEN1046) | Blood alkaline phosphatase increase Grade 2, Docetaxel-related ([2]; 55 mg/m^2 Docetaxel + GEN1046) | Blood alkaline phosphatase increase Grade 3, Docetaxel-related ([2]; 55 mg/m^2 Docetaxel + GEN1046) | Dysgeusia Grade 2, Docetaxel-related ([2]; 55 mg/m^2 Docetaxel + GEN1046) | Fatigue Grade 3, Docetaxel-related ([2]; 55 mg/m^2 Docetaxel + GEN1046) | Febrile neutropenia Grade 3, Docetaxel-related ([2]; 55 mg/m^2 Docetaxel + GEN1046) | Hypokalemia Grade 2, Docetaxel-related ([2]; 55 mg/m^2 Docetaxel + GEN1046) | Hypomagnesaemia Grade 1, Docetaxel-related ([2]; 55 mg/m^2 Docetaxel + GEN1046) | Hyponatremia Grade 1, Docetaxel-related ([2]; 55 mg/m^2 Docetaxel + GEN1046) | Infusion site extravasation Grade 1, Docetaxel-related ([2]; 55 mg/m^2 Docetaxel + GEN1046) | Nausea Grade 1, Docetaxel-related ([2]; 55 mg/m^2 Docetaxel + GEN1046) | Neutrophil count decreased Grade 4, Docetaxel-related ([2]; 55 mg/m^2 Docetaxel + GEN1046) | Pyrexia Grade 1, Docetaxel-related ([2]; 55 mg/m^2 Docetaxel + GEN1046) | Pyrexia Grade 2, Docetaxel-related ([2]; 55 mg/m^2 Docetaxel + GEN1046) | White blood cell count decreased Grade 4, Docetaxel-related ([2]; 55 mg/m^2 Docetaxel + GEN1046) | Anaemia Grade 3, Docetaxel-related ([2]; 75 mg/m^2 Docetaxel + GEN1046) | Diarrhea Grade 1, Docetaxel-related ([2]; 75 mg/m^2 Docetaxel + GEN1046) | Dyspnea Grade 4, Docetaxel-related ([2]; 75 mg/m^2 Docetaxel + GEN1046) | Fatigue Grade 1, Docetaxel-related ([2]; 75 mg/m^2 Docetaxel + GEN1046) | Gastrooesophageal reflux disease Grade 2, Docetaxel-related ([2]; 75 mg/m^2 Docetaxel + GEN1046) | Hiccups Grade 2, Docetaxel-related ([2]; 75 mg/m^2 Docetaxel + GEN1046) | Lacrimation increased Grade 1, Docetaxel-related ([2]; 75 mg/m^2 Docetaxel + GEN1046) | Nausea Grade 1, Docetaxel-related ([2]; 75 mg/m^2 Docetaxel + GEN1046) | Neutrophil count decreased Grade 3, Docetaxel-related ([2]; 75 mg/m^2 Docetaxel + GEN1046) | Neutrophil count decreased Grade 4, Docetaxel-related ([2]; 75 mg/m^2 Docetaxel + GEN1046) | Not coded: periphery sensory neuropathy Grade 1, Docetaxel-related ([2]; 75 mg/m^2 Docetaxel + GEN1046) | Vomiting Grade 1, Docetaxel-related ([2]; 75 mg/m^2 Docetaxel + GEN1046)
